Data set [1] in a line: Half life in Sprague-Dawley rat liver microsomes at 3 uM by LC-MS analysis. The data set is classed as ADME.
Another data set has as its target Adenosine receptor A2a (Homo sapiens, UniProt P29274). As to the kind of experiment: Displacement of [3H]ZM241385 from human adenosine A2A receptor expressed in HEK293 cells after 1 hr by liquid scintillation counting. The format is cell-based.
A further data set deals with T1, Adenosine receptor A3 (Homo sapiens, UniProt P0DMS8).
T1 sequence (P0DMS8 whole entry): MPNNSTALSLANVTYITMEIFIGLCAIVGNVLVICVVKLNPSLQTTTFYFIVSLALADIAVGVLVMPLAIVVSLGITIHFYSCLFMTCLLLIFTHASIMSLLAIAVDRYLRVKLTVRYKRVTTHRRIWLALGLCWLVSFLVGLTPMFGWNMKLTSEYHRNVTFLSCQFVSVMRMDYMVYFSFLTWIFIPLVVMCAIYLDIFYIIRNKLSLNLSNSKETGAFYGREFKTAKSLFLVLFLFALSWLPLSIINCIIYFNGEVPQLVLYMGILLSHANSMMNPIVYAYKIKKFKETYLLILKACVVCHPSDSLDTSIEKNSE
As to the kind of experiment: Displacement of [125I]AB-MECA from adenosine A3 receptor (unknown origin) expressed in CHO-K1 cells after 60 mins. The data set is classed as cell-based. On the technique in general: Displacement assays read how much labelled ligand stays bound in the presence of the test substance.

The next data set deals with T2, Adenosine receptor A2b (Homo sapiens, UniProt P29275).
T2 sequence (P29275 whole entry): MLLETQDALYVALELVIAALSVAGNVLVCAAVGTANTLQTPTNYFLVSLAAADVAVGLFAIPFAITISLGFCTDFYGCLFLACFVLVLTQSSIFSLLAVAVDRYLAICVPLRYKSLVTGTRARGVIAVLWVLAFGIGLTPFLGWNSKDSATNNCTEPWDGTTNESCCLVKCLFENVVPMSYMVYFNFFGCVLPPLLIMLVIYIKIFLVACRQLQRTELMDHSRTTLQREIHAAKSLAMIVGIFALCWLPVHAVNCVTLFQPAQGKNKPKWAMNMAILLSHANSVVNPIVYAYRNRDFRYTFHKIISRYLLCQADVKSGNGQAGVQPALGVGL
In words: Displacement of [3H]MRS1754 from adenosine A2B receptor (unknown origin) expressed in HEK293 cells after 90 mins. The data set is classed as cell-based.

In the next data set the target is T3, Adenosine receptor A1 (Homo sapiens, UniProt P30542).
T3 sequence (P30542 whole entry): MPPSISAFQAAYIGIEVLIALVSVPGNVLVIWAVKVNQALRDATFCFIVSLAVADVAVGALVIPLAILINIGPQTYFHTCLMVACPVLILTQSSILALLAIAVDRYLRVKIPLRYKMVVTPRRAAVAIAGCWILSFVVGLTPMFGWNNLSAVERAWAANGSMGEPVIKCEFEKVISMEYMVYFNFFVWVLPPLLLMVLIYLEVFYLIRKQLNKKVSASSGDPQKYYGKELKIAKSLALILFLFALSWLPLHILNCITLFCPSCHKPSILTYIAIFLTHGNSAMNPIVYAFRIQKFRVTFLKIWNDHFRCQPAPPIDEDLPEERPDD
In words: Displacement of [3H]DPCPX from human adenosine A1 receptor expressed in CHO cells after 1 hr by liquid scintillation counting. The format is cell-based.

The subject of another data set is CHO. As to the kind of experiment: Selectivity ratio of Ki for human adenosine A1 receptor expressed in CHO cells to Ki for human adenosine A2A receptor expressed in HEK293 cells. The data set is classed as cell-based.

Sequence of Adenosine receptor A2a (P29274 whole entry): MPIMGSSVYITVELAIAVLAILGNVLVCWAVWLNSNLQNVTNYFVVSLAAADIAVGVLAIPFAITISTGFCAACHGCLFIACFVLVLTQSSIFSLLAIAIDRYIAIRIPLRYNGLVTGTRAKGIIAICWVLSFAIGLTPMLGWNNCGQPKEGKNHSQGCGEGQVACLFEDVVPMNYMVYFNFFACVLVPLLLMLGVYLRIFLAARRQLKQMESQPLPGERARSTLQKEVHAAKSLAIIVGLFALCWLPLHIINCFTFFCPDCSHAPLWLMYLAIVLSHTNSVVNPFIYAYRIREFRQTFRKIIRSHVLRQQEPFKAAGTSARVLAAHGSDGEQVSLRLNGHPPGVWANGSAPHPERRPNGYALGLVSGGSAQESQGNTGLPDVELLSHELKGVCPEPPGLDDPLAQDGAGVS

As for `Cc1csc(-c2coc3cccc(C)c3c2=O)n1`, the half-life (usually the time needed for the level to fall by half in the phase considered) at 3 µM in data set [1] came out at 14 min. The Ki on Adenosine receptor A2a (read-out: pKi (converted)) is 316 nM. Compound `CCOc1cc2occ(-c3nc(C)cs3)c(=O)c2cc1CC` registered a half-life at 3 µM in data set [1] of 16 min. Moreover, the IC50 on Adenosine receptor A3 and on Adenosine receptor A2b was more than 10000 nM in each case. Moreover, the Ki was more than 10000 nM on Adenosine receptor A3; more than 10000 nM at Adenosine receptor A2b; 5000 nM at Adenosine receptor A1; 40 nM at Adenosine receptor A2a (read-out: Ki); 39.8 nM at Adenosine receptor A2a (read-out: pKi (converted)). Regarding `CC(=O)Oc1cc(C)c2c(=O)c(-c3nc(C)cs3)coc2c1`, in the data set on CHO, the Ratio Ki was found to be 13. In addition, the Ki on Adenosine receptor A2a (read-out: pKi (converted)) was 31.6 nM.

As to `CCc1cc2c(=O)c(-c3nc(C)cs3)coc2cc1O`, the Ratio Ki in the data set with CHO is more than 100. On Adenosine receptor A2a (read-out: pKi (converted)), the Ki is 79.4 nM. Turning to `CCc1cc2c(=O)c(-c3csc(C)n3)coc2cc1O`, the Ki at Adenosine receptor A2a (read-out: pKi (converted)) was 50.1 nM. As to `CCOC(=O)COc1cc(C)c2c(=O)c(-c3nc(C)cs3)coc2c1`, the Ki on Adenosine receptor A2a (read-out: pKi (converted)) is 100 nM. On the same count and under the same terms, to `CCc1cc2c(=O)c(-c3cscn3)coc2cc1O` belongs 1580 nM. In the case of `Cc1csc(-c2coc3cc(OCCN(C)C)cc(C)c3c2=O)n1`, the Ki on Adenosine receptor A2a (read-out: pKi (converted)) was 1580 nM.

For `Cc1csc(-c2coc3cc(O)ccc3c2=O)n1`, the Ki at Adenosine receptor A2a (read-out: pKi (converted)) is 2000 nM. On the same count and under the same terms, the figure for `Cc1csc(-c2coc3cc(OCC(=O)O)cc(C)c3c2=O)n1` is 2000 nM; for `Cc1csc(-c2c(C)oc3cc(O)ccc3c2=O)n1` it is 7940 nM. Still for that read-out and setting: the figure for `CCCc1cc2c(=O)c(-c3csc(C)n3)coc2cc1O` is 31.6 nM. For the compound `Cc1csc(-c2coc3cc(OCC4CC4)cc(C)c3c2=O)n1`, in the data set with CHO, the Ratio Ki was more than 100. The half-life at 3 µM in data set [1] was 18 min. The Ki on Adenosine receptor A2a (read-out: pKi (converted)) is 79.4 nM. Consider `CCCc1cc2c(=O)c(-c3nc(C)cs3)coc2cc1O`, for which the Ki on Adenosine receptor A2a (read-out: pKi (converted)) is 25.1 nM.

Consider `C#CCCCOc1cc(C)c2c(=O)c(-c3nc(C)cs3)coc2c1`, for which, on Adenosine receptor A2a (read-out: pKi (converted)), the Ki is 25.1 nM. `CCCCCc1cc2c(=O)c(-c3nc(C)cs3)coc2cc1O`: the Ratio Ki in the data set with CHO is more than 100. Besides, the Ki at Adenosine receptor A2a (read-out: pKi (converted)) is 20 nM.
